In patent US20110021560A1, “Compositions And Methods For Regulating Chondrocyte Proliferation In Bone Disorders” (University of Massachusetts Medical School, priority 2009, published 2011):

Assays:
fracture healing = settings: rats (Simon et al., 2002); cited from earlier work
fracture callous = experiment: Mouse femur fracture model: histology and histomorphometry of fracture callous; format: in vivo, C57B/6 mice; settings: for new bone formation by histomorphometry: Day 7 and Day 10, compared with controls; for amount of unmineralized chondroid matrix / callous size: Day 7 and Day 10 post fracture, vs control; for early stages of fracture repair (Safranin-O histology): animals sacrificed at Days 7, 10 and 14, oral gavage, montelukast sodium 1.5 mg/kg/Day, zileuton 45 mg/kg/Day; for fracture bridging and callous remodeling: by Day 21 (data not shown); for amount of chondroid (quantification) / percent chondroid (quantification) / total callous size (quantification): compared to control, montelukast sodium vs zileuton not significant
From the text: Because leukotrienes have been reported as potent inflammatory agents and may have a role as negative regulators of mesenchymal stem cell (MSC) differentiation, it was reasonable to determine as to whether inhibiting the effect of the cysteinyl leukotrienes would enhance chondrocyte proliferation in a bone healing from a fracture. See, Example II. […] Day 0 post-fracture X-rays were taken while under anesthesia. See, FIG. 3. Subsequent X-rays were taken at Days 7, 10, 14, and 21 for all animals (N=4) until the time of sacrifice. […] Histological sections for Days 7, 10, and 14 post-fracture where the differences between treated and control groups were most readily identifiable at early time points. See, FIG. 4. For example, evidence of healing was readily visible between the two treatment groups versus control as early as Day 7.
(§1) C57B/6 mice were purchased (Charles River, Inc.Q3) and housed in the animal facility at the University of Massachusetts Medical School under IACUC approved protocol. Eight- to 9-week-old animals were used in the study.
(§2) Institutional approval was obtained and all procedures were undertaken in accordance with approved IACUC methods. Animals were administered general anesthesia using IP injections of ketamine and xylazine. A midline skin incision over the knee joint was utilized and a median parapatellar arthrotomy was performed to expose the trochlear groove. A pilot hole was made using a 25 gauge needle to gain access to the femoral canal. The central cannula from a 22 gauge spinal needle was inserted into the canal and passed to the proximal femur in retrograde fashion. The wire was backed out slightly, cut, and reinserted. Wounds were closed, and the femur was held in a fixed position while a drop weight from a standard height was used to deliver a fixed traumatic injury to the mid portion of the femur, generating a fracture via three point bending, and ensuring that fractures were generated using a traumatic method with reproducible energy of injury (Marturano et al., 2008).
(§3) Medications were suspended in 1% methylcellulose (Sigma, Inc.Q6) and delivered by direct intragastric delivery. […] As the study medications are both currently FDA approved for the treatment of reactive airway disease, our dosing frequency was based on current prescription guidelines. Montelukast sodium was administered once daily by oral gavage. At the time the study began, zileuton was only approved for four times per Day dosing; as the drug needed to be administered by oral gavage and to maintain the normal sleep/awake cycle of the mouse colonies in the animal facilities, three doses of zileuton were dosed at 6-h intervals, with a 12-h break from 8 pm to 8 am. Control animals received 1% methylcellulose carrier only by a single daily oral gavage. The first dose of all medications was administered on post-fracture Day 1.
All animals were examined pre- and post-fracture using live fluoroscopy with an inverted Xiscan 1000 fluoroscope. Pre-fracture imaging was used to confirm correct positioning of the stabilizing wire, and post-fracture imaging was used to confirm correct fracture location and configuration. Additionally, standard radiographs were obtained in all animals immediately post-fracture with a high resolution MX-20 Faxitron on mammography film. Animals were anesthetized for additional X-rays to document fracture repair at 7, […] Days post-fracture. Animals were sacrificed immediately post-fracture if the fracture was not diaphyseal and transverse.
Fracture specimens were harvested at various times (7, 10, 14, and 21 Days) and fixed in a solution of 4% paraformaldehyde, 0.1% CPC in PBS for 16 h at room temperature, and then embedded in paraffin after decalcification. Embedded tissues were sectioned into […] slices, mounted on silane-coated glass slides (FisherQ7), de-paraffinized, and re-hydrated. […]

[1] = tested on: fracture callous mRNA expression; experiment: Quantitative real-time PCR of fracture callous tissue in mouse fracture model; format: in vivo, C57B/6 mice; settings: for Col 1 mRNA levels: Day 7, compared with controls (data not shown); for Runx2 mRNA levels: Day 10, vs control (montelukast sodium P<0.05; zileuton P=0.06); for osteocalcin mRNA levels: Day 10, vs control (montelukast sodium P<0.05; zileuton P=0.07); for CysLT1 receptor mRNA levels in fracture callous: Day 10, control peak expression significantly higher; for Col 10a1 mRNA levels: Day 14, vs control (P<0.01)
From the text: Fracture callous was harvested from animals (N=4) in the three treatment groups after sacrifice at days 7, 10, 14, and 21 and assayed for expression of chondrogenic markers by qPCR. See, FIG. 10. […] Although it is not necessary to understand the mechanism of an invention, it is believed that the expression of Sox9 and Col 2a mRNA indicate a cellular commitment to the chondrocyte phenotype.
as §1, §2
as §3, with “Montelukast sodium was administered once daily by oral gavage.” left out
Mice were sacrificed on Days 7, 10, 14, and 21 post-fracture. The fractured limb was carefully dissected free and all overlying tissue was carefully removed to expose the fracture callous. Callous tissue alone was then placed in TRIzol reagent, avoiding the underlying cortical bone. The tissue was ground using a Polytron homogenizer and total RNA was isolated as per the manufacturer's instructions (InvitrogenQ11). Any potential DNA contamination was removed by RNase-free DNase treatment. The reverse transcription reaction was performed on […] of total RNA using the First Strand Synthesis Kit and random hexamer primers (Invitrogen). Relative transcript levels were measured by real-time PCR in a […] reaction volume on 96-well plate using ABI PRISM 7000 FAST sequence detection system (Applied BiosystemsQ12), following the recommended protocol for SYBR-Green (Applied Biosystems). Transcript levels were normalized with 18S ribosomal RNA levels using primers from Applied Biosystems and SYBR-Green master mix (Applied Biosystems). The primers used for amplification are described in Table 2.
Student's t-test was performed to analyze the significance of the data for gene expression and histomorphometric analysis.

[2] = Day 10, vs control (P<0.05 for zileuton)

Row | CysLT1 receptor mRNA levels in fracture callous [1] | Structure (SMILES) | fracture healing (radiographic, histological, mechanical testing) (fracture healing) | new bone formation by histomorphometry (fracture callous) | amount of unmineralized chondroid matrix (fracture callous) | callous size (fracture callous) | early stages of fracture repair (Safranin-O histology) (fracture callous) | fracture bridging and callous remodeling (fracture callous) | amount of chondroid (quantification) (fracture callous) | percent chondroid (quantification) (fracture callous) | total callous size (quantification) (fracture callous) | Col 1 mRNA levels [1] | Col 2a1 mRNA expression [1, 2] | SOX9 mRNA expression [1, 2] | Runx2 mRNA levels [1] | osteocalcin mRNA levels [1] | Col 10a1 mRNA levels [1] | Col 2a1 mRNA expression ([1]; Day 14, vs control (P<0.05)) | time of peak Sox9 mRNA levels ([1]; controls peak at day 7) | histone gene expression by qRT-PCR ([1]; data not shown)
1 |  | Cc1ccc(-c2cc(C(F)(F)F)nn2-c2ccc(S(N)(=O)=O)cc2)cc1 [celecoxib] | fracture healing failed |  |  |  |  |  |  |  |  |  |  |  |  |  |  |  |  | 
2 | low | CC(C)(O)c1ccccc1CCC(SCC1(CC(=O)O)CC1)c1cccc(C=Cc2ccc3ccc(Cl)cc3n2)c1 (centres unmarked) [montelukast sodium, [1-[[1-[3-[2-[(7-chloro-2-quinolyl)]vinyl]phenyl]-3-[2-(1-hydroxy-1-methyl-1-ethyl)phenyl]-propyl]sulfanylmethyl]-cyclopropyl]acetic acid] |  | significantly greater | markedly increased | dramatically larger | enhances | bridged the ends of the fracture and remodeled the callous to woven bone | significantly greater | significantly greater | significantly greater | decrease | not seen | not seen | higher | elevated | higher | elevated | peak later than controls at Day 10 | 
3 |  | CS(=O)(=O)c1ccc(C2=C(c3ccccc3)C(=O)OC2)cc1 [rofecoxib] | fracture healing failed |  |  |  |  |  |  |  |  |  |  |  |  |  |  |  |  | 
4 | low | CC(c1cc2ccccc2s1)N(O)C(N)=O (centres unmarked) [zileuton] |  | significantly greater | markedly increased | dramatically larger | enhances | bridged the ends of the fracture and remodeled the callous to woven bone | significantly greater | significantly greater | significantly greater | decrease | elevated | elevated | increased | elevated | significantly higher |  |  | higher
